# Where “and” joins values, the source holds several entries; their conditions need not be identical. Equal entries are not always repeated.
# How the values were obtained:
# Assay type in all cases: in vivo, Cydia pomonella
# codling moth [1] = test: Field study of individual alcohols, aldehydes and esters; conditions: individual compounds typically of purity 90-98%
# Description: Attractive activity of these compounds for male and female codling moth was compared to purified ethyl (2E,4Z)-2,4-decadienoate.
# When the cumulative evaluation of all studied compounds and/or blends containing aldehyde, alcohol, ester and terpene compounds was made, the following results clearly confirmed the findings seen in Table 3.
# codling moth [2] = test: Trap capture with purified (2E,4E) and (2E,4Z) 2,4-decadienoic acid esters; conditions: 1 mg dose/gray septum; four orchards; means of 21 trap checks
# Procedure: In this study, test compounds were highly purified synthetic samples. The purities of the compounds are expressed as percentages. Individual traps were baited with 1 mg dose/gray septum; five replicate blocks in four orchards; means of 21 total trap checks.
# codling moth [3] = test: Trap capture with proportional mixes of ethyl 2,4-decadienoate isomers; conditions: 1 mg dose/gray septum
# Procedure: Additionally, studies were performed to determine the attraction of codling moth to proportional mixes of (2E,4Z) and (2E,4E) isomers of ethyl 2,4-decadienoate and highly purified samples of each. Traps were baited with 1 mg dose/gray septum.
# codling moth [4] = test: Inherent attractancy field test of HPV blends in baited sticky traps in walnut orchard
# Procedure: The blends listed in Table 2 were then field tested in walnut orchards for their attractancy to male and female codling moths, and also for enhancement with synthetic codling moth pheromone and other additives identified above. Their total capture (both males and females), and their individual male and female capture were determined and results obtained, were compared to insect capture obtained with purified individual ester, compound #25 namely ethyl (2E,4Z)-2,4-decadienoate, and to the codling moth male sex pheromone compound #26 in Table 3.
# Individual blends containing representative aldehyde, alcohol, ester, monoterpene or sesquiterpene blends were provided in the traps in 10 mg/white septa.
# Individual host-plant volatile (HPV) blends identified by the #1-23 in Table 3 were tested for codling moth attractancy in a walnut orchard, and the results were compared to the isolated purified ethyl (2E,4Z)-2,4-decadienoate (#25), to pheromone (#26) and to solvent controls (#24).
# Twenty-five HPV blends and eight individual compounds were field tested. One synthetic blend, “ester blend #10,” elicited excellent codling moth attraction. In field tests, the other tested blends (see Table 3) and compounds captured no moths over a three month period, except for an “apple-skin surface extract” (Golden Delicious, ether solvent) (Σ=3 codling moth captured, 1♂: 2♀♀) and the individual compound, (E,E)-α-farnesene (Σ=1♂ codling moth captured). The field tests are presented in Table 3 and show attraction specificity for HPV ester blend #10.
# (§1) Sticky traps (ICP and IIB traps, Trécé, Inc. Salinas, Calif.) were baited with either extracts, blends of HPVs, or individual HPVs (>95% purity) that evaporated from impregnated rubber septa. HPV blends, or individual HPV compounds, were diluted in hexane and pipetted onto rubber septa at approximate doses of 10 mg/septum. A single treatment septum was placed in each sticky wing-trap, and hung approximately six meters high in the outer walnut canopy. Trap liners and treatment HPV septa were replaced every 10-14 days and pheromone septa every month and tests were conducted throughout two summers.
# (§2) A replicated series of different HPV treatment traps, control “blank” (unbaited) trap, and a commercial pheromone-baited trap (Trécé, Inc.) were distributed 5 trees apart throughout two distant Hartley walnut orchards and validated in 12 walnut orchards. The orchards were distinct, with one using three summer insecticide sprays and the other had no spraying. Thus, these test orchards had low vs. moderate relative populations of codling moths. Significant effects on the gender of codling moths captured were judged by paired tests, either T-test or a nonparametric test.
# codling moth [5] = test: Sticky traps baited with the single compound or pheromone; conditions: Table 15, sticky trap
# Description: FIG. 5 illustrates mean attraction of female and male codling moths to sticky traps baited with a single host plant volatile, ethyl (2E,4Z)-2,4-decadienoate. The attraction was followed over a two month period.
# codling moth [6] = test: Rapid-kill liquid traps baited with ester blend #10 or pheromone
# Procedure: Experimental challenge to this question was to use a novel, funnel-liquid-jar-trap (“rapid-kill liquid traps”) to rapidly kill (drown) attracted moths. […] Again, it was the females who were predominantly captured (sex ratio: 1♂:3.0♀♀ insect attracted).
# Again, females were preferentially attracted (3:1 ratio) to ester blend #10 rapid kill liquid traps, while only males were seen to be attracted to the pheromone traps.
# A second series of inherent attractancy tests were conducted on the most-active HPV blend (ester blend #10) using a novel, funnel-liquid (50:50 water and antifreeze) jar-trap adapted from a prototype of Trece, Inc., to rapidly kill (drown) attracted moths (“rapid-kill liquid traps”). This study comprised of a pheromone standard trap, a control blank trap and seven replicated HPV ester blend #10-baited traps. The rapid-kill traps were hung six meters high on trees distributed five rows apart in a Hartley walnut orchard with a moderate codling moth population. HPV ester blend #10 was loaded on a rubber septa at approximate doses of 10 mg/septum and were replaced every 10 days, while the commercial pheromone septum was replaced monthly.
# codling moth [7] = test: Paired-trap test of pheromone alone vs pheromone + ester blend #10; conditions: for Total Moths Caught: / Mean ± SEM capture of codling moths: Table 11; for Mean ± SEM capture of codling moths: paired traps, Hartley walnut orchard
# Description: The ability of the HPV ester blend #10 to influence the pheromone attractancy/preference of codling moth was resolved using paired-traps, one trap with a pheromone septum alone and the other trap with a pheromone septum and an ester blend #10 septum. […] Results are seen in Tables 10 and 11, and FIG. 3.
# Table 10 illustrates interaction of pheromone with HPV ester blend #10 on codling moth attraction, when tested in a conventional low-population Hartley walnut orchard. There were 13 traps and 18 trap check dates.
# (§3) Pheromone traps (sticky wing traps, Trécé, Inc.,) were hung as pairs: a pheromone only baited-trap vs. a pheromone+HPV blend-baited trap. The two traps of a test pair were attached in close competitive proximity (120 cm apart) on a common hanger bar (PVC pipe). The paired-trap bars were hung 5-6 meters high on the outer canopies of trees. A single pair-trap was hung per tree and different replicate test trees were separated by five rows in a matrix through the orchard. Each pheromone trap was baited with ½ of a commercial pheromone-impregnated rubber septum (Trécé, Inc.). Septa were sectioned by a razor blade. The HPV blends evaporated from their own separate impregnated rubber septa containing 10 mg diluted in hexane/septum).
# (§4) Tests were conducted in a Harley English walnut orchard. Tests spanned the entire two year seasons April-October with traps checked, males sexed, counted and removed every 2-7 days. Significant effect on pheromone trap capture were judged by paired tests either T-test or a nonparametric test.
# codling moth [8] = test: Ester blend #10-baited vs pheromone-baited sticky traps; conditions: Table 13; baited sticky trap
# Description: Attraction of female and male codling moths to ester blend #10 in baited sticky trap is seen in FIG. 1. […] Results are numerically expressed in Table 13.
# Table 13 compares two orchard treatments with ester blend #10 and pheromone-only baited sticky traps. […] In the pheromone baited traps, only male insects were captured.
# The female flight pattern depicted by capture in ester blend #10-baited sticky traps was related to the male flight pattern to pheromone-baited traps over the 3 month test period. Results are seen in FIG. 2, which is a comparative graph of codling moth flight patterns delineated by males captured in pheromone traps versus both sexes captured in ester blend #10 traps. […] The male pheromone curve rises sooner and lasts longer per flight, while the female ester blend #10 curve drops off sooner. These temporal-phase shifts of the flight curves represent the earlier and longer emergence of male codling moth for each flight period.
# as §1, §2
# codling moth [9] = test: Septa colour and loading dose trap study; conditions: Ph-L2 pheromone
# Procedure: Since there have been differences observed between traps containing gray, white or red septa, a study was performed to determine the significance of the specific septa and their effect on the increase or decrease of attractancy. […]
# male codling moth = test: Pheromone preference paired-trap test: pheromone alone vs pheromone + HPV; conditions: Table 8, trap paired with the HPV of the same table line
# Description: Interaction of synthetic apple and pear odor blends, described above in Table 2, and their effect on the attractancy of synthetic pheromone to codling moth was also studied. For that purpose, series of paired-traps containing pheromone alone or pheromone in combination with synthetic host plant volatile blends were placed in walnut orchards.
# Interaction of individual synthetic host plant volatiles or blends on the attractiveness of synthetic male pheromone to male codling moth administered in paired traps with pheromone alone or with pheromone and attractant 10 mg/red septum was also studied.
# as §3, §4
# [10] = 3 traps, 43 trap checks (pheromone: 1 trap, 19 trap checks)
# [11] = Gray Septa, High (high population conventional orchard)
# [12] = Gray Septa, Low (low population organic orchard)
# [13] = Red Septa, High (high population conventional orchard)
# [14] = Red Septa, Low (low population organic orchard)
# [15] = walnut orchard, blends 10 mg/white septa, ethyl (2E,4Z)-2,4-decadienoate 5 mg
smiles,measurement,setting,value
"CCCCC/C=C\C=C\C(=O)OC [Methyl (2E,4Z)-2,4-Decadienoate]",attractancy to male and female codling moth (in words),codling moth [1],most active
same,FEMALE CM Captured: ♂♂/trap/night ± SEM,codling moth [2],0.41 ± 0.14 ♀♀/trap/night
same,MALE CM Captured: ♂♂/trap/night ± SEM,codling moth [2],0.12 ± 0.07 ♂♂/trap/night
same,Total CM Captured: CM/trap/night ± SEM,codling moth [2],0.54 ± 0.19 CM/trap/night
"CCCCC/C=C/C=C/C(=O)OCC [Ethyl (2E,4E)-2,4-Decadienoate]",MALE CM Captured: ♂♂/trap/night ± SEM,codling moth [2],0.24 ± 0.06 ♂♂/trap/night
same,Total CM Captured: CM/trap/night ± SEM,codling moth [2],0.77 ± 0.20 CM/trap/night
same,Female CM Captured ♀♀/trap/night ± SEM,codling moth [3],0.05 ± 0.05 ♀♀/trap/night
same,MALE CM Captured: ♂♂/trap/night ± SEM,codling moth [3],0.19 ± 0.05 ♂♂/trap/night
same,Total CM Captured: CM/trap ± SEM,codling moth [3],0.24 ± 0.10 CM/trap
CCCCCCC/C=C/C(=O)OCC [ethyl (2E)-2-decenoate],attractancy to male and female codling moth (in words),codling moth [1],most active
"C=C/C(C)=C/C/C=C(\C)CCC=C(C)C [(E,E)-α-farnesene]",Σ codling moth captured,codling moth [4]; field tests over a three month period,1
CCCCCCC/C=C/COC(C)=O [(E)-2-decen-1-yl acetate],attractancy to male and female codling moth (in words),codling moth [1],most active
"CCCCCC=CC=CCO [(2,4)-2,4-decadien-1-ol]",attractancy to male and female codling moth (in words),codling moth [1],very low male attractancy
"C/C=C/C=C/CCCCCCCO [Pheromone, (E,E)-8,10-dodecadienol, reference compound]",Female Capture: Sum:,codling moth [5],0 Moths/Trap/Night
same,Male Capture: Sum:,codling moth [5],94.3 Moths/Trap/Night
same,Female Capture: Mean ± SEM,codling moth [5]; [10],0 Moths/Trap/Night
same,Male Capture: Mean ± SEM,codling moth [5]; [10],4.96 ± 1.04 Moths/Trap/Night
same,Female Capture: Sum:,codling moth [6]; Table 14,0 Moths/Trap/Night
same,Male Capture: Sum:,codling moth [6]; Table 14,18.3 Moths/Trap/Night
same,Female Capture: Mean ± SEM,"codling moth [6]; Table 14, one month",0 Moths/Trap/Night
same,Male Capture: Mean ± SEM,"codling moth [6]; Table 14, one month",3.04 ± 0.08 Moths/Trap/Night
same,Total Moths Caught: Male,"codling moth [7]; Table 10, conventional low-population Hartley walnut orchard",46
same,"Male capture, Mean ± SEM","codling moth [7]; Table 10, conventional low-population Hartley walnut orchard, 13 traps, 18 trap check dates",0.55 Moths/Night
same,Total Moths Caught:,codling moth [7]; Test 1,212
same,Mean ± SEM capture of codling moths,codling moth [7]; Test 1 (2 Reps),0.74 ± 0.13 Moths/Trap/Night
same,Total Moths Caught:,codling moth [7]; Test 2,745
same,Mean ± SEM capture of codling moths,"codling moth [7]; Test 2 (2 Reps, 50 trap checks)",2.54 ± 0.43 Moths/Trap/Night
same,Female Capture: Mean ± SEM,codling moth [8],0 Moths/Trap/Night
same,Female Capture: Sum:,codling moth [8],0 Moths/Trap/Night
same,Male Capture: Mean ± SEM,codling moth [8],4.96 ± 1.04 Moths/Trap/Night
same,Male Capture: Sum:,codling moth [8],94.3 Moths/Trap/Night
same,♂♂ ± SEM (Ph-L2 pheromone),codling moth [9]; [11],0.08 ± 0.05
same,♂♂ ± SEM (under Ph-L2 pheromone),codling moth [9]; [11],0.05 ± 0.05
same,♂♂ ± SEM (Ph-L2 pheromone),codling moth [9]; [12],0
same,♂♂ ± SEM (under Ph-L2 pheromone),codling moth [9]; [12],1.28 ± 0.61
same,♂♂ ± SEM (Ph-L2 pheromone),codling moth [9]; [13],0.06 ± 0.06
same,♂♂ ± SEM (under Ph-L2 pheromone),codling moth [9]; [13],9.98 ± 2.94
same,♂♂ ± SEM (Ph-L2 pheromone),codling moth [9]; [14],0
same,♂♂ ± SEM (under Ph-L2 pheromone),codling moth [9]; [14],0.80 ± 0.31
same,"Male CM Captured, Pheromone Alone Trap: ± SEM",male codling moth; Orchard #1,0.73 ± 0.15 ♂♂/trap/night and 1.09 ± 0.27 ♂♂/trap/night and 1.04 ± 0.21 ♂♂/trap/night and 0.79 ± 0.15 ♂♂/trap/night and 1.24 ± 0.52 ♂♂/trap/night and 0.72 ± 0.13 ♂♂/trap/night
same,"Male CM Captured, Pheromone Alone Trap: ± SEM",male codling moth; Orchard #3,2.41 ± 0.42 ♂♂/trap/night and 2.98 ± 0.49 ♂♂/trap/night and 2.33 ± 0.41 ♂♂/trap/night and 4.40 ± 0.87 ♂♂/trap/night and 2.60 ± 0.38 ♂♂/trap/night and 3.82 ± 0.42 ♂♂/trap/night
same,MALE CM Captured: ♂♂/trap/night ± SEM,codling moth [2],7.13 ± 1.94 ♂♂/trap/night
same,Total CM Captured: CM/trap/night ± SEM,codling moth [2],7.13 ± 1.94 CM/trap/night
same,FEMALE CM Captured with HPV; ♀♀/trap night ± SEM,codling moth [4]; [15],0.0 ♀♀/trap night
same,MALE CM Captured with HPV; ♂♂/trap/night ± SEM,codling moth [4]; [15],3.15 ± 0.98 ♂♂/trap/night
same,Total CM Captured with HPV: (CM/trap/night ± SEM),codling moth [4]; [15],3.15 ± 0.98 CM/trap/night
"CCCCC/C=C/C=C/C(=O)OCCC [n-Propyl (2E,4E)-2,4-Decadienoate]",FEMALE CM Captured: ♂♂/trap/night ± SEM,codling moth [2],0.19 ± 0.07 ♀♀/trap/night
same,MALE CM Captured: ♂♂/trap/night ± SEM,codling moth [2],0.17 ± 0.13 ♂♂/trap/night
same,Total CM Captured: CM/trap/night ± SEM,codling moth [2],0.36 ± 0.19 CM/trap/night

# Reference: patent publication US6528049B2, “Bisexual attractants, aggregants and arrestants for adults and larvae of codling moth and other species of lepidoptera” (Trece, Inc., priority 1999, dated 2003)
